Measurements taken from patent US12258344B2, “Azaaromatic amide derivatives for the treatment of cancer” (SHENZHEN FORWARD PHARMACEUTICALS CO., LTD., priority 2019, dated 2025).

Tests used:
Assay type in all cases: cell-based
BaF3 (EGFR/A763insFQEA) = BaF3 (EGFR/A763insFQEA) (Homo sapiens, UniProt P00533, INS763FQEA, cells depend on it); test: Test 14: EGFR exon 20 inserted A763insFQEA cell proliferation test; conditions: 72 hours, Cell Titer-Glo, read-out: Test 14 IC50
Procedure: Test 14: EGFR Exon 20 Inserted A763insFQEA Cell Proliferation Test
(§1) The number of viable cells in the culture was measured according to the protocol described in Promega's Cell Titer-Glo Luminescent cell Viability Assay (Promega catalog number #G7570). 90 μl of cells (3,000 cells/well) were cultured in growth medium in a Corning black transparent bottom 96-well plate, and cultured in a 5% CO2 humidified incubator at 37° C. overnight. The compound serially diluted in 100% DMSO was added to the cells using a pipette, and the cells were incubated for another 72 hours. 100 μl of the mixed Cell Titer-Glo reagent was added to the cells in the 96-well culture plate to lyse the cells and mix gently. Subsequently, the […] was detected on the Envision microplate detector to obtain the data of each compound. Finally, the data was input into a suitable software package (such as Prism) for curve fitting analysis.

BaF3 (EGFR/V769insASV) = BaF3 (EGFR/V769insASV) (Homo sapiens, UniProt P00533, DUP767-769, cells depend on it); test: Test 15: EGFR exon 20 inserted V769insASV cell proliferation test; conditions: 72 hours, Cell Titer-Glo, read-out: Test 15 IC50
Procedure: Test 15: EGFR Exon 20 Inserted V769insASV Cell Proliferation Test
as §1, with “(3000” for “(3,000”

BaF3 (EGFR/D770insSVD) [1] = biological target: T1, BaF3 (EGFR/D770insSVD) (Homo sapiens, UniProt P00533, cells depend on it, form not given); test: Test 13: EGFR exon 20 inserted D770insSVD cell proliferation test; conditions: A763insFQEA, V769insASV, D770insSVD (tests 13-15), in words
T1 construct: other: A763insFQEA, V769ins
Procedure: (§2) Test 13: EGFR Exon 20 Inserted D770insSVD Cell Proliferation Test
as §1

BaF3 (EGFR/D770insSVD) [2] = biological target: T2, BaF3 (EGFR/D770insSVD) (Homo sapiens, UniProt P00533, DUP768-770, cells depend on it); test: as above; conditions: BaF3 (EGFR/D770insSVD), 72 hours, Cell Titer-Glo; read-out: Test 13 IC50
T2 construct: Test 13 IC50 (nM); other: BaF3 (EGFR/D770insSVD), 72 hours, Cell Titer-Glo
Procedure: as §2, §1

BaF3 (EGFR-D770insSVD) = BaF3 (EGFR-D770insSVD) (Homo sapiens, UniProt P00533, DUP768-770, cells depend on it); test: Test 2: BaF3 (EGFR-D770insSVD) cell proliferation test; conditions: 72 hours, Cell Titer-Glo, read-out: Test 2 - IC50
Procedure: Test 2: BaF3 (EGFR-D770insSVD) Cell Proliferation Test
BaF3 (EGFR-D770insSVD) was cultured in RPMI1640 medium containing 10% fetal bovine serum and 2 mM glutamine. The cells were grown at 37° C. in a humidified incubator with 5% CO2.
as §1

BaF3 (EGFR-A763insFQEA) = BaF3 (EGFR-A763insFQEA) (Homo sapiens, UniProt P00533, INS763FQEA, cells depend on it); test: Test 3: BaF3 (EGFR-A763insFQEA) cell proliferation test; conditions: 72 hours, Cell Titer-Glo, read-out: Test 3 - IC50
Procedure: Test 3: BaF3 (EGFR-A763insFOEA) Cell Proliferation Test
BaF3 (EGFR-A763insFQEA) was cultured in RPMI1640 medium containing 10% fetal bovine serum and 2 mM glutamine. The cells were grown at 37° C. in a humidified incubator with 5% CO2.
as §1

BaF3 (EGFR-V769insASV) = BaF3 (EGFR-V769insASV) (Homo sapiens, UniProt P00533, DUP767-769, cells depend on it); test: Test 4: BaF3 (EGFR-V769insASV) cell proliferation test; conditions: 72 hours, Cell Titer-Glo, read-out: Test 4 - IC50
Procedure: Test 4: BaF3 (EGFR-V769insASV) Cell Proliferation Test
BaF3 (EGFR-V769insASV) was cultured in RPMI1640 medium containing 10% fetal bovine serum and 2 mM glutamine. The cells were grown at 37° C. in a humidified incubator with 5% CO2.
as §1

[3] = test system: NCI-H1975 (EGFR L858R/T790M double mutant); test: Test 1: EGFR L858R/T790M (EGFR double mutant) cell proliferation test; conditions: Homo sapiens; NCI-H1975 cells, 72 hours, Cell Titer-Glo
Procedure: Test 1: EGFR L858R/T790M (EGFR Double Mutant) Cell Proliferation Test
The human lung cell line NCI-H1975 (EGFR L858R/T790M double mutant) was obtained from the American Type Culture Collection. NCI-H1975 cells were cultured in RPMI1640 medium containing 10% fetal bovine serum and 2 mM glutamine. The cells were grown at 37° C. in a humidified incubator with 5% CO2.
as §1, with “(8,000” for “(3,000”

T1 sequence (P00533 25-1210 limits assumed, stated change not applied): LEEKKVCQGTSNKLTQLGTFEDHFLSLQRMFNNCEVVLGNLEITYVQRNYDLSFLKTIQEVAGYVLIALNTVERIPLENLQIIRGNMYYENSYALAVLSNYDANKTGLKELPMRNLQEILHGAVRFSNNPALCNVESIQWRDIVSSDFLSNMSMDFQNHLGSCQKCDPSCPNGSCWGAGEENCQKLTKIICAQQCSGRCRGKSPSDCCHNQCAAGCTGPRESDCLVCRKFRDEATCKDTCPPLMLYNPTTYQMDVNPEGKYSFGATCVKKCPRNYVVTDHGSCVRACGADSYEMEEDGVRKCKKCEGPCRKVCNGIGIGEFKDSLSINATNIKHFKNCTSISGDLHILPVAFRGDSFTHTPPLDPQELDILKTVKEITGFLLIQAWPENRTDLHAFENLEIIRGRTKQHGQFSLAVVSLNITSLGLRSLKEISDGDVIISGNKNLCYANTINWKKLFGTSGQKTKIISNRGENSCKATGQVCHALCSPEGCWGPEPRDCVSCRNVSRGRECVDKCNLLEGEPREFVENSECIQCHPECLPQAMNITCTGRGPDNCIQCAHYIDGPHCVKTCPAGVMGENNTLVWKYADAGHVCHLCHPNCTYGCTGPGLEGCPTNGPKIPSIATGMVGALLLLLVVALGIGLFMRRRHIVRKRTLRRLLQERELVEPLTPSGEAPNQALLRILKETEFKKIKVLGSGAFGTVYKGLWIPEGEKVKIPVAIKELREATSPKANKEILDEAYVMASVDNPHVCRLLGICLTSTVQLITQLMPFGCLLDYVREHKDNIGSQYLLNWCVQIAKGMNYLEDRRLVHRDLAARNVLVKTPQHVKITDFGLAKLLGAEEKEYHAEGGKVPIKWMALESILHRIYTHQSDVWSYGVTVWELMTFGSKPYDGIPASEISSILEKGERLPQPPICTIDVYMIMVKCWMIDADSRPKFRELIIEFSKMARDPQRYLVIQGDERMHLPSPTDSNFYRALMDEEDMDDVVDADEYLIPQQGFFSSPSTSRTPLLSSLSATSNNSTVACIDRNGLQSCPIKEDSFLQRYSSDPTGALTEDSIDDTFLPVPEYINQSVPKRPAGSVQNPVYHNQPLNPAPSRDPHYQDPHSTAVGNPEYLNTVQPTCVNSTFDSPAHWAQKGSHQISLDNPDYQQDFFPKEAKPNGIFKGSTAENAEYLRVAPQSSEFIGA
Sequence of BaF3 (EGFR-V769insASV) (P00533 with tags, fused parts or gaps DUP767-769): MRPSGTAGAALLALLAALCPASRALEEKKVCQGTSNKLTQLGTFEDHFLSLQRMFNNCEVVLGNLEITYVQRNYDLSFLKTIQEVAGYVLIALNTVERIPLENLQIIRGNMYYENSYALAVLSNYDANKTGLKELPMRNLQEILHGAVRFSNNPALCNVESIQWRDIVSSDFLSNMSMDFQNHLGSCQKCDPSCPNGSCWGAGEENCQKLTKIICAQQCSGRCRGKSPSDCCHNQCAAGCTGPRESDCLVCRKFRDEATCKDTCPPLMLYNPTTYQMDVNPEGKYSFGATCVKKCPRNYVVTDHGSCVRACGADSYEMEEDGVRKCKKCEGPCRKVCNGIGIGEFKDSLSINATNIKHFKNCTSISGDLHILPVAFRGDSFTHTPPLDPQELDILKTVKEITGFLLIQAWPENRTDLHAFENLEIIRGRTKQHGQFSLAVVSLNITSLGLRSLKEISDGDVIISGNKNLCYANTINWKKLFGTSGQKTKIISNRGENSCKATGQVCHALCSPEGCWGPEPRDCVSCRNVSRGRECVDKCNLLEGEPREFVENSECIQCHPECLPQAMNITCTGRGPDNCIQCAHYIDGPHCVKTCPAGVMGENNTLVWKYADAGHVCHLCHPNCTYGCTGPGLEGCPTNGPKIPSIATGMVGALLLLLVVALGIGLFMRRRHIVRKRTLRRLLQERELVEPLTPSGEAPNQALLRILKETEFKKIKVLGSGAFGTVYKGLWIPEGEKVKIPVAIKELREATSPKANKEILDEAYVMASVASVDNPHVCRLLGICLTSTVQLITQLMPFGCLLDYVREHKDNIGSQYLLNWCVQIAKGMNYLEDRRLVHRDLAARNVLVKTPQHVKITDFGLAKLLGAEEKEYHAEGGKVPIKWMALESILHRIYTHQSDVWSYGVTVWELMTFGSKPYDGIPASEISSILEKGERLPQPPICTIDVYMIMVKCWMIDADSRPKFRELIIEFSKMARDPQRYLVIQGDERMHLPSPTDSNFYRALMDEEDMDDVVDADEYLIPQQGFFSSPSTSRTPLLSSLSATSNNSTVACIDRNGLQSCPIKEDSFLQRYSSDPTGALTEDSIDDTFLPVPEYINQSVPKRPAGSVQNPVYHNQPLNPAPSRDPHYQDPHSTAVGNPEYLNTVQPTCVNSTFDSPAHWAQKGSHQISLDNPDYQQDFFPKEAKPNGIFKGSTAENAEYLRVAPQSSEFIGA
Sequence of BaF3 (EGFR-D770insSVD) (P00533 with tags, fused parts or gaps DUP768-770): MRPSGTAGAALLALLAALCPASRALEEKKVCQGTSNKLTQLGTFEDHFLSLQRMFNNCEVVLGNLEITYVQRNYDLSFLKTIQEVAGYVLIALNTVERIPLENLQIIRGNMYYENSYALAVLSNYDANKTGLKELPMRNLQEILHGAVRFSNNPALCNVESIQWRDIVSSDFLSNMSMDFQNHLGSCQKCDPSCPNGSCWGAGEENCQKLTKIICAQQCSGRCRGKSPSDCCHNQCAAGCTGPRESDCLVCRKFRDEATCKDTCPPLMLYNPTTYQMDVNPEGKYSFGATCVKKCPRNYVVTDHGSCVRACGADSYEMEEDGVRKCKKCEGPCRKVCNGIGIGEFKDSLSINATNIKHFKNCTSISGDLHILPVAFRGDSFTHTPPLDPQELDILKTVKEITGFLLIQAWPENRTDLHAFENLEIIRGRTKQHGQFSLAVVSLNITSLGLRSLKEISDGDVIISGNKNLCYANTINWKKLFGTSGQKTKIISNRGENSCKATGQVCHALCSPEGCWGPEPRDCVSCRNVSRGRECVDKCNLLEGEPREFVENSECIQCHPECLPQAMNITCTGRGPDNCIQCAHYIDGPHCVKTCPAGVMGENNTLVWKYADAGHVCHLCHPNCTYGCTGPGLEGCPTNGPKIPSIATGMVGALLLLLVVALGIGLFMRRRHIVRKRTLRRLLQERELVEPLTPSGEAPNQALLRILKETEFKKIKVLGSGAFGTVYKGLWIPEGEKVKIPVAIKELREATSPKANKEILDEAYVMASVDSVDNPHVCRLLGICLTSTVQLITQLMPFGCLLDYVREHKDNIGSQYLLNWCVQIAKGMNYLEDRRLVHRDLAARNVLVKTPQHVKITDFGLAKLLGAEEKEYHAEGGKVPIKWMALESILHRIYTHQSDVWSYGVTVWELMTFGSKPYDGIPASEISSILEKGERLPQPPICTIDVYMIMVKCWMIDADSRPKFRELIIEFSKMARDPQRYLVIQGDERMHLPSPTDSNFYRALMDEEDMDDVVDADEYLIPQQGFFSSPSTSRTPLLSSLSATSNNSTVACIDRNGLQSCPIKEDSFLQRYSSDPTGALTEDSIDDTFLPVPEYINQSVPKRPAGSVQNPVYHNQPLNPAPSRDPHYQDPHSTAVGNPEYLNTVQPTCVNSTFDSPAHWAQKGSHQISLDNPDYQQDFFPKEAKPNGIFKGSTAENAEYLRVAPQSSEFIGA
Sequence of BaF3 (EGFR-A763insFQEA) (P00533 with tags, fused parts or gaps INS763FQEA): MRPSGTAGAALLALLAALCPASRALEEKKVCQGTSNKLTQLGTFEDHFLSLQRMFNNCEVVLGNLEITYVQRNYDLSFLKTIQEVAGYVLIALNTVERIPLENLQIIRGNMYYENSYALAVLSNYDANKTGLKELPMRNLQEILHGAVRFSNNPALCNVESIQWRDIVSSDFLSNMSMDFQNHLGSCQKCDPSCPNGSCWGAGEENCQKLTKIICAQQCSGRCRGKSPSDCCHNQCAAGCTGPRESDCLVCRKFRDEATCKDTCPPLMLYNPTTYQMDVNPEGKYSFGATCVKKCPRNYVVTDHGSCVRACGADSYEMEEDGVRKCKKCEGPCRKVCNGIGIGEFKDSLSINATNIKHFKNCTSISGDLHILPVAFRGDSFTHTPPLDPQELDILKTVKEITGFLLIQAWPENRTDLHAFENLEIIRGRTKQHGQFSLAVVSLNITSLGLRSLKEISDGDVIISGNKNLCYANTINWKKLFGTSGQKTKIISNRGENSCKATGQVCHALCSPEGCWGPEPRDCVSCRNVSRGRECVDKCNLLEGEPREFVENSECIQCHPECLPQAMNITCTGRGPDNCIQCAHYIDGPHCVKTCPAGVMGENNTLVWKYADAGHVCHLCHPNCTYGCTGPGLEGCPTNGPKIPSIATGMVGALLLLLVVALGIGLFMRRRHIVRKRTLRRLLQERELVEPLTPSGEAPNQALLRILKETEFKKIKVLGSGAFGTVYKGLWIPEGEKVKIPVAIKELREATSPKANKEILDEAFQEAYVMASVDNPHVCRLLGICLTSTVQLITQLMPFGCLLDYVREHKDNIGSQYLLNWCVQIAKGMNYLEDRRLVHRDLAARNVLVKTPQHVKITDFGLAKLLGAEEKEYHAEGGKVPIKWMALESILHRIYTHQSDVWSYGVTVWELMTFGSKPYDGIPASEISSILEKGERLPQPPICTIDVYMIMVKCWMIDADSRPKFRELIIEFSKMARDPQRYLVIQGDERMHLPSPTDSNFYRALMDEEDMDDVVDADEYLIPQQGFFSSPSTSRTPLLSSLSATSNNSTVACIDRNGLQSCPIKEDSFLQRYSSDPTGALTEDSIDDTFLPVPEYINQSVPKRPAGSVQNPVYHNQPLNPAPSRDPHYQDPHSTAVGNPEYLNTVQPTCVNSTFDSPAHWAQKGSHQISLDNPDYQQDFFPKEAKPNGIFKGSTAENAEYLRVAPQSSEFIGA

SMILES	GI50 (BaF3 (EGFR/A763insFQEA))	GI50 (BaF3 (EGFR/V769insASV))	cell activity compared with Osimertinib (AZD9291) against EGFR exon 20 insertion mutations (BaF3 (EGFR/D770insSVD) [1])	GI50 (BaF3 (EGFR/D770insSVD) [2])	GI50 (BaF3 (EGFR-D770insSVD))	GI50 (BaF3 (EGFR-A763insFQEA))	GI50 (BaF3 (EGFR-V769insASV))	IC50 [3]
C=CC(=O)Nc1cc(Nc2ncnc(N3CC(C)(C)c4ncccc43)n2)c(OC)cc1N(C)CCN(C)C [Compound 17, N-(5-((4-(3,3-dimethyl-2,3-dihydro-1H-pyrrolo[3,2-b]pyridin-1-yl)-1,3,5-triazin-2-yl)amino)-2-((2-(dimethylamino)ethyl)(methyl)amino)-4-methoxyphenyl)acrylamide]	14.7 nM	36.4 nM	significant superior cell activity over Osimertinib (AZD9291)	58 nM	–	–	–	–
C=CC(=O)Nc1cc(Nc2ncnc(-n3cc(C)c4cnccc43)n2)c(OC)cc1N(C)CCN(C)C [Compound 18, N-(2-((2-(dimethylamino)ethyl)(methyl)amino)-4-methoxy-5-((4-(3-methyl-1H-pyrrolo[3,2-c]pyridin-1-yl)-1,3,5-triazin-2-yl)amino)phenyl)acrylamide]	131 nM	244 nM	significant superior cell activity over Osimertinib (AZD9291)	320 nM	–	–	–	–
C=CC(=O)Nc1cc(Nc2ncnc(-n3ccc4cnccc43)n2)c(OC)cc1N1CC[C@@H]1CN(C)C [Example 1, (R)—N-(5-((4-(1H-pyrrole[3,2-c]pyridin-1-yl)-1,3,5-triazin-2-yl)amino)-2-(2-((dimethylamino)methyl)azetidine-1-yl)-4-methoxyphenyl)acrylamide]	–	–	–	–	412 nM	280 nM	386 nM	19.8 nM
COc1cc(N2CC[C@@H]2CN(C)C)c(NC(=O)/C=C/CN(C)C)cc1Nc1ncnc(-n2ccc3cnccc32)n1 [Example 2, (R,E)-N-(5-((4-(1H-pyrrole[3,2-c]pyridin-1-yl)-1,3,5-triazin-2-yl)amino)-2-(2-((dimethylamino)methyl)azetidine-1-yl)-4-methoxyphenyl)-4-(dimethylamino)butene-2-amide]	–	–	–	–	–	–	–	130 nM
C=CC(=O)Nc1cc(Nc2ncnc(-n3nc(F)c4ccccc43)n2)c(OC)cc1N(C)CCN(C)C [Example 3, N-(2-((2-(dimethylamino)ethyl)(methyl)amino)-5-((4-(3-fluoro-1H-indazol-1-yl)-1,3,5-triazin-2-yl)amino)-4-methoxyphenyl)acrylamide]	–	–	–	–	–	–	–	57 nM
C=CC(=O)Nc1cc(Nc2nccc(-c3cnc4c(I)cccn34)n2)c(OC)cc1N(C)CCN(C)C [Example 4, N-(2-((2-(dimethylamino)ethyl)(methyl)amino)-4-methoxy-5-((4-(8-iodoimidazo[1,2-a]pyridin-3-yl)pyrimidin-2-yl)amino)phenyl)acrylamide]	–	–	significant superior cell activity over Osimertinib (AZD9291)	–	592 nM	313 nM	470 nM	66.7 nM
C=CC(=O)Nc1cc(Nc2nccc(-c3cnc4c(F)cccn34)n2)c(OC)cc1N(C)CCN(C)C [Example 5, N-(2-((2-(dimethylamino)ethyl)(methyl)amino)-5-((4-(8-fluoroimidazo[1,2-a]pyridin-3-yl)pyrimidin-2-yl)amino)-4-methoxyphenyl)acrylamide]	–	–	significant superior cell activity over Osimertinib (AZD9291)	–	144 nM	42.6 nM	148 nM	19.5 nM
C=CC(=O)Nc1cc(Nc2nccc(-c3cnc4c(C(F)(F)F)cccn34)n2)c(OC)cc1N(C)CCN(C)C [Example 6, N-(2-((2-(dimethylamino)ethyl)(methyl)amino)-4-methoxy-5-((4-(8-trifluoromethylimidazo[1,2-a]pyridin-3-yl)pyrimidin-2-yl)amino)phenyl)acrylamide]	–	–	significant superior cell activity over Osimertinib (AZD9291)	–	518 nM	277 nM	477 nM	91 nM
C=CC(=O)Nc1cc(Nc2nccc(-n3nc(F)c4ccccc43)n2)c(OC)cc1N(C)CCN(C)C [Example 7]	–	–	–	–	–	–	–	57 nM
